The subject of the assay is spontaneous contractions of the rat uterus. Nature of the assay: rat uterine contractility assay (Wiqvist & Paul). Type of assay: cell-based. Here is the method: Using the above conditions chain combination yields from 1.5 to 6.0% have been achieved as measured by biological activity in the rat uterine contractility assay of Wiqvist & Paul (Acta Endocrinol., 29, 135-136, 1958).
Human relaxin H2 [S-thioethyl Cys^10,11,15 ] A(1-24) (4.2 mg dry wt., 2.4 mg peptide by amino acid analysis, 0.84 μmole) was dissolved in 500 μl of 0.1M glycine buffer pH 10.5 in a 3 ml stoppered plastic centrifuge tube. Human relaxin H2 [S-sulfo Cys^10,11 ] B(-1-24) (1.60 mg, 1.60 mg peptide by amino acid analysis, 0.33 μmole) dissolved in 200 μl of 0.1M glycine buffer pH 10.5 was added and the mixture agitated. An aliquot (23.0 μl, 2.21 μmole DTT) of a stock solution of dithithreitol (DTT) made up in 0.1M glycine buffer pH 10.5 (0.96 μmole DTT in 10 μl) was added to the peptide solution and following a brief agitation the reaction mixture was allowed to stand at 4° C. for 24 hours open to the air. The mixture was then centrifuged and aliquots of the supernatant solution tested for relaxin biological activity in the rat uterine contractility assay.
The synthetic S-sulfonated and S-thioethyl H2 human relaxin A(1-24) peptides were coupled to S-thioethyl H2 human relaxin B(-1-32) using the same chain combination procedures described previously for the shortened B-chain (-1-24). […]

Ends that are not written are not given here.

On to “hRLX A(1-24)-B(-1-32): Authentic human relaxin H2: synthetic A chain (1-24) combined with full length B chain (-1-32) (Relaxin B chain DSWMEEVIKLCGRELVRAQIAICGMSTWS; Relaxin A chain QLYSALANKCCHVGCTKRSLARFC; ends and bridges not checked; cysteine pairing not given here; UniProt P04090 25-53; P04090 162-185, looked up)”, for which the “inhibition of uterine contractions by a 100 μl aliquot” value (100 μl aliquot of chain combination mixture, compared to native pig relaxin A22 B31 standard) is “completely inhibited uterine contractions”. In addition, under “aliquots of supernatant of chain combination mixture”, the “inhibition of the spontaneous contractions of the rat uterus by aliquots of the chain combination reaction mixture” value is listed as “inhibited the spontaneous contractions of the rat uterus in a dose-related manner”.

The record behind these values is patent publication US5326694A, “Process for synthesizing human H2-prorelaxin, human H2-relaxin and fusion proteins thereof” (Howard Florey Institute of Experimental Physiology and …, priority 1982, dated 1994).
